Experimental data: patent publication US9957325B2, “Synthetic antibody mimic peptides” (Formurex, Inc., priority 2015, dated 2018)
Where no end group is shown, it is not given here.

Key:
Experiment in all cases: Flow cytometry of FITC labeled HER2 mimics
MDA-MB-361 cells = type: cell-based; details: MDA-MB-361, 10 μM, 15 minutes
Description: (§1) Flow cytometric studies were carried out to quantify the fluorescence intensity of cells after being incubated with FITC labeled mimics. MDA-MB-361, ZR-75-1 and HEK293 cells were seeded in 6-well culture plates at a density of 3×10^5 cells per well for 24 hours and then incubated with FITC labeled mimics at a concentration of 10 μM in HBSS at 37° C. for 15 minutes. After washing with HBSS twice, cells remaining on the plates were trypsinized with Trpsin-EDTA and centrifuged at 1500 rpm for 5 min. Supernatant was removed and cell pellets were resuspended in 1 ml of HBSS. The suspension was transferred to a FACS Calibur™ flow cytometer and cell fluorescence was measured with high dynamic range photomultipliers with a 530 nm filter. Quantitative changes of fluorescence in different cells samples were assessed by mean fluorescence intensity (MFI), and FACS data were analyzed using BD CellQuest™ Pro software. Paired t-tests were used to determine statistical significance using the GraphPad Prism 5® Software. P-values less than or equal to 0.05 were considered to be statistically significant.

ZR-75-1 cells = type: cell-based; details: ZR-75-1, 10 μM, 15 minutes
Description: as §1

HEK293 cells = type: cell-based, human; details: HEK 293, 10 μM, 15 minutes
Description: as §1

Substance “FITC-HER2-PEP22: FITC labeled control peptide HER2-PEP22 (TSPQGYPNDAGFLGRESTN; not fully specified (N-terminus); also: FITC labeled)” has an MFI (MDA-MB-361 cells) of 22.1±0.5, an MFI (ZR-75-1 cells) of 19.6±3.2 and an MFI (HEK293 cells) of 14.7±1.7.
